Where a name gives a salt, the structure may show the parent alone. Read-outs that look alike come from different tables or passages of the source.
Assays:
[1] = test system: naja naja (snake venom) phospholipase A2 -induced paw edema; test: Phospholipase A2-induced Paw Edema (PIPE); assay type: in vivo, male Wistar rats; settings: 0.1M; rat hindpaw, subplantar injection with PLA2 (3 units/paw), 2 hours
Procedure: Phospholipase A2 -induced Paw Edema (PIPE)
The ability of compounds to prevent naja naja (snake venom) phospholipase A2 -induced paw edema in male Wistar rats (100-125 g) was measured. PLA2 (3 units/paw) alone or with 0.1M of the test compound was injected in the subplantar region of the rat left hindpaw. Immediately subsequent to the injection and at two hours post administration the paw was immersed in a mercury bath, and paw displacement was measured on a recorder via a transducer. […] See Giessler, A. J. et al., Agents and Actions, Vol. 10, Trends in Inflammation Research (1981), p. 195.

[2] = test system: ear edema induced by topical application of TPA (phorbol 12-myristate acetate); test: TPA-Induced Ear Edema (TPAEE); assay type: in vivo, Female Swiss Webster mice; settings: for change in vivo at 10 µg/ear: 5 h, read-out: TPAEE
Procedure: TPA-Induced Ear Edema (TPAEE)
The purpose of this assay was to determine the ability of a topically-applied compound to prevent ear edema induced by topical application of TPA (phorbol 12-myristate acetate). Female Swiss Webster mice topically received TPA (10 μg/ear) on the right ear and vehicle on the left ear. The test compound (10 μg/ear) was applied to both ears. After five hours, the animals were sacrificed and an ear punch (4 mm) was taken from each ear. The difference in right and left ear punch weights for each animal was determined to assess activity. […] See Young, J. M. et al., J. Invest. Dermatol., 80 (1983), pp. 48-52.

[3] = test system: 2-phenyl-1,4-benzoquinone-induced writhing; test: 2-phenyl-1,4-benzoquinone-induced writhing test (PQW); assay type: in vivo, mice; settings: Mus musculus, sc, read-out: PQW % Inhibition of writhing
[4] = test system: mouse ear edema induced by topical application of arachidonic acid; test: Arachidonic Acid-Induced Ear Edema (AAEE); assay type: in vivo, Female Swiss Webster mice; settings: for AAEE: 1.0 mg (per ear), mouse
Procedure: Arachidonic Acid-Induced Ear Edema (AAEE)
The purpose of this assay was to determine the ability of a topically-applied compound to prevent mouse ear edema induced by topical application of arachidonic acid. Female Swiss Webster mice topically received vehicle or test compound (1.0 mg/ear) on both ears (10 μl on outer and inner ears). After 30 minutes, the right ear of all groups received arachidonic acid (4 mg/ear) and the left ear received vehicle alone. After an additional 1 hour, the mice were sacrificed and an ear punch (4 mm) was taken from each ear. The difference in right and left ear punch weights for each animal was determined to assess activity. […] See Young, J. M. et al., Invest. Dermatol., 80, (1983), pp 48-52.

[5] = 10 μg (per ear), mouse, five hours

| Compound | PIPE (difference in edema vs. control) [1] | change in vivo at 10 µg/ear [2, 5] | other results |
| --- | --- | --- | --- |
| Nc1ccncc1C(N)c1ccccc1 (centres unmarked) [(4-Amino-3-pyridinyl)benzenemethanamine dihydrochloride] | -66% |  |  |
| CC1c2cnccc2N=CN1Cc1ccccc1 (centres unmarked) [3,4-Dihydro-4-methyl-3-phenylmethylpyrido[4,3-d]pyrimidine dihydrochloride] |  |  | change in vivo at 10 µg/ear ([2]; Mus musculus): -55%; inhibition in vivo at 20 mg/kg [3]: 85% |
| CC(O)c1cnccc1NC(=O)C(C)(C)C (stereo not drawn) [α-Methyl-α-[4-(2,2-dimethylpropionamido)-3-pyridinyl]-methanol] |  | -46% |  |
| Nc1ccncc1C(=NO)c1ccccc1 [(4-Amino-3-pyridinyl)phenylmethanone oxime hydrochloride] |  | -32% |  |
| CC(C)(C)C(=O)Nc1ccncc1C(O)C1CCCCC1 (stereo not drawn) [α-Cyclohexyl-α-[4-(2,2-dimethylpropionamido)-3-pyridinyl]-methanol] | -35% | -55% | AAEE [4]: -52%; inhibition in vivo at 20 mg/kg ([3]; 20 mg/kg, s.c.): 32% |
| C[C@]12CCC(=O)C=C1CC[C@@H]1[C@@H]2[C@@H](O)C[C@@]2(C)[C@H]1CC[C@]2(O)C(=O)CO [hydrocortisone, reference compound] |  |  | ED50 ([2]; standard, TPAEE): 47 μg/ear |
| CC(NCc1ccccc1)c1cnccc1N (stereo not drawn) [4-Amino-α-methyl-N-(phenylmethyl)-3-pyridinemethanamine] |  | -45% | inhibition in vivo at 20 mg/kg ([3]; 20 mg/kg, s.c.): 58% |
| Cl.Cl.Nc1ccncc1C(N)C1CCCCC1 (centres unmarked) [(4-Amino-3-pyridinyl)cyclohexylmethanamine dihydrochloride] | -68% | -36% | AAEE [4]: -28% |
| C1=NC(C2CCCCC2)c2cnccc2N1.Cl.Cl (centres unmarked) [4-Cyclohexyl-1,4-dihydropyrido[4,3-d]pyrimidine dihydrochloride] | -44% |  |  |
| CC(NCc1ccccc1)c1cnccc1NC(=O)C(C)(C)C.Cl.Cl (centres unmarked) [N-[3-[1-(Phenylmethylamino)ethyl]-4-pyridinyl]-2,2-dimethylpropionamide dihydrochloride] |  |  | AAEE [4]: -44% |
| Nc1ccncc1C(=NO)C1CCCCC1 [(4-Amino-3-pyridinyl)cyclohexylmethanone oxime hydrochloride] |  | -34% |  |
| COc1ccc2c(c1)c(CC(=O)O)c(C)n2C(=O)c1ccc(Cl)cc1 [indomethacin, reference compound] |  |  | ED50 ([4]; standard, AAEE): 1.5 mg/ear |
| Cl.Cl.Nc1ccncc1CNCc1ccccc1 [3-[(Phenylmethylamino)methyl]-4-pyridinamine dihydrochloride] | -51% |  |  |
| Nc1ccncc1C(=O)C1CCCCC1 [(4-Amino-3-pyridinyl)cyclohexylmethanone hydrochloride] |  | -53% |  |
| CCCCNCc1cnccc1NC(=O)C(C)(C)C.Cl.Cl [N-[3-[(Butylamino)methyl]-4-pyridinyl]-2,2-dimethylpropanamide dihydrochloride] |  |  | AAEE [4]: -45% |
| CC(=O)c1cnccc1NC(=O)C(C)(C)C [N-(3-Acetyl-4-pyridinyl)-2,2-dimethylpropanamide] |  |  | inhibition in vivo at 20 mg/kg ([3]; 20 mg/kg, s.c.): 34% |
